Like-named read-outs stand apart in the source and are kept apart here.

EC50 and IC50 data for 12 compounds are collected here from patent US8987195B2 (priority 2012, dated 2015).

Assay [1] deals with HCV genotype 1b replicon. The assay can be described thus: HCV replicon assay, genotype 1b replicon EC50. In kind it is cell-based, Hepatitis C virus. Particulars: Hepatitis C virus, read-out: EC50 [gt-1b]. Put shortly: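 Cells harbouring a stable replicon are grown under G418 selection, then plated with test compound in G418-free medium for 24-48 hours. After washing and lysis, RNA or luciferase signal is measured and expressed as percent of DMSO control to give EC50.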
For orientation: A replicon is a self-replicating genome or part of one, used to study replication in cells.

For assay [2], the target named is HCV NS3/4A protease genotype 1b (Hepatitis C virus genotype 1b, UniProt P26663). Put plainly: HCV NS3/4A protease time-resolved fluorescence (TRF) assay, Ki against genotype 1b. The assay is classed as biochemical. The method, boiled down:
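NS3/4A enzyme was preincubated 30 min with inhibitor in 50 mM HEPES pH 7.5, 150 mM NaCl, 15% glycerol, 0.15% Triton X-100, 10 mM DTT, 0.1% PEG 8000; 25 nM europium TRF peptide substrate added, 2.5 h at room temperature. Enzyme: 0.2 nM (1b), 0.4 nM (A156T), 0.025 nM (3a). Ki from IC50 via Cheng-Prusoff.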

Where [3] appears, read: IC50 [gt-1b], NS3/4A protease TRF assay, genotype 1b enzyme 0.2 nM.
Where [4] appears, read: IC50 [gt-1b] (nM), NS3/4A genotype 1b, enzyme 0.2 nM.
[5] abbreviates: HCV replicon, genotype 1b, K+ salt.
Setting [6] is: IC50 [gt-1b], NS3/4A protease TRF assay, genotype 1b enzyme 0.2 nM, K+ salt.

The term EC50 denotes the concentration needed to bring the measured effect to its halfway point. As usually defined, the IC50 is the point on the concentration scale where inhibition reaches its midpoint. `COc1ccc2nc(C(F)F)c3c(c2c1)CC[C@]1(C[C@H]2C(=O)N[C@]4(C(=O)NS(=O)(=O)C5(C)CC5)C[C@H]4/C=C\CCCCC[C@H](NC(=O)OC(C)C)C(=O)N2C1)O3` [Example 446, propan-2-yl [(2R,6S,12Z,13aS,14aR,16aS)-5′-(difluoromethyl)-9′-methoxy-14a-{[(1-methylcyclopropyl)sulfonyl]carbamoyl}-5,16-dioxo-1,1′,2′,5,6,7,8,9,10,11,13a,14,14a,15,16,16a-hexadecahydrospiro[cyclopropa[e]pyrrolo[1,2-a][1,4]diazacyclopentadecine-2,3′-pyrano[2,3-c]quinolin]-6-yl]carbamate]: the EC50 in assay [1] (HCV replicon, genotype 1b) stood at 1160 pM. In assay [2] (setting [3]), this compound had an IC50 of 0.013 nM.
With `COc1ccc2nc(C(F)(F)F)c3c(c2c1)OC[C@]1(C[C@H]2C(=O)N[C@]4(C(=O)NS(=O)(=O)C5(C)CC5)C[C@@H]4/C=C/CCCCC[C@H](NC(=O)OC(C)(C)C)C(=O)N2C1)O3` [Example 517, tert-butyl [(2R,6S,12E,13aR,14aR,16aS)-9′-methoxy-14a-{[(1-methylcyclopropyl)sulfonyl]carbamoyl}-5,16-dioxo-5′-(trifluoromethyl)-1,5,6,7,8,9,10,11,13a,14,14a,15,16,16a-tetradecahydrospiro[cyclopropa[e]pyrrolo[1,2-a][1,4]diazacyclopentadecine-2,3′-[1,4]dioxino[2,3-c]quinolin]-6-yl]carbamate], the EC50 in assay [1] (HCV replicon, genotype 1b) amounted to 8870 pM. In assay [2] (setting [3]), this compound showed a half-inhibitory concentration (IC50) of 11.2 nM.
Regarding `Cc1nc2ccccc2c2c1O[C@]1(CC2)C[C@H]2C(=O)N[C@]3(C(=O)NS(=O)(=O)C4(C)CC4)C[C@H]3/C=C\CCCCC[C@H](NC(=O)O[C@H]3C[C@H]4CC[C@@H]3C4)C(=O)N2C1` [Example 181, (1R,2S,4S)-bicyclo[2.2.1]hept-2-yl [(2R,6S,12Z,13aS,14aR,16aS)-5′-methyl-14a-{[(1-methylcyclopropyl)sulfonyl]carbamoyl}-5,16-dioxo-1,1′,2′,5,6,7,8,9,10,11,13a,14,14a,15,16,16a-hexadecahydrospiro[cyclopropa[e]pyrrolo[1,2-a][1,4]diazacyclopentadecine-2,3′-pyrano[2,3-c]quinolin]-6-yl]carbamate], in assay [1] (genotype 1b replicon), the EC50 is 390 pM. In assay [2] (setting [4]), the IC50 was 0.017 nM.
As for `Cc1nc2ccc(OCC(F)(F)F)cc2c2c1O[C@]1(CC2)C[C@H]2C(=O)N[C@]3(C(=O)NS(=O)(=O)C4(C)CC4)C[C@H]3/C=C\CCCCC[C@H](NC(=O)OC(C)(C(F)(F)F)C(F)(F)F)C(=O)N2C1` [Example 308, 1,1,1,3,3,3-hexafluoro-2-methylpropan-2-yl [(2R,6S,12Z,13aS,14aR,16aS)-5′-methyl-14a-{[(1-methylcyclopropyl)sulfonyl]carbamoyl}-5,16-dioxo-9′-(2,2,2-trifluoroethoxy)-1,1′,2′,5,6,7,8,9,10,11,13a,14,14a,15,16,16a-hexadecahydrospiro[cyclopropa[e]pyrrolo[1,2-a][1,4]diazacyclopentadecine-2,3′-pyrano[2,3-c]quinolin]-6-yl]carbamate], the EC50 in assay [1] (genotype 1b replicon) worked out at 416000 pM. The compound further came in with an IC50 in assay [2] (setting [4]) of 0.006 nM.
For `Cc1nc2ccccc2c2c1O[C@]1(C=C2)C[C@H]2C(=O)N[C@]3(C(=O)NS(=O)(=O)C4CC4)C[C@H]3/C=C\CCCCC[C@H](NC(=O)OC(C)(C)C)C(=O)N2C1` [Example 26, tert-Butyl (2S,6S,13aS,14aR,16aS,Z)-14a-(cyclopropylsulfonylcarbamoyl)-5′-methyl-5,16-dioxo-3,5,6,7,8,9,10,11,13a,14,14a,15,16,16a-tetradecahydro-1H-spiro [cyclopropa[e]pyrrolo[1,2-a][1,4]diazacyclopentadecine-2,3′-pyrano[2,3-c]quinoline-]-6-ylcarbamate], the EC50 in assay [1] (genotype 1b replicon) worked out at 1340 pM. Moreover, the IC50 in assay [2] (setting [4]) stood at 0.013 nM.
For `CCc1nc2ccc(OCCCOC)cc2c2c1O[C@]1(CC2)C[C@H]2C(=O)N[C@]3(C(=O)NS(=O)(=O)C4(C)CC4)C[C@H]3/C=C\CCCCC[C@H](NC(=O)O[C@@H](C)C(C)C)C(=O)N2C1` [Example 487, (2S)-3-methylbutan-2-yl [(2R,6S,12Z,13aS,14aR,16aS)-5′-ethyl-9′-(3-methoxypropoxy)-14a-{[(1-methylcyclopropyl)sulfonyl]carbamoyl}-5,16-dioxo-1,1′,2′,5,6,7,8,9,10,11,13a,14,14a,15,16,16a-hexadecahydrospiro[cyclopropa[e]pyrrolo[1,2-a][1,4]diazacyclopentadecine-2,3′-pyrano[2,3-c]quinolin]-6-yl]carbamate], the EC50 in assay [1] (setting [5]) worked out at 343 pM. The IC50 in assay [2] (setting [6]) worked out at 0.005 nM.
Take `Cc1nc2ccc(OC(F)(F)F)cc2c2c1O[C@]1(CC2)C[C@H]2C(=O)N[C@]3(C(=O)NS(=O)(=O)C4(C)CC4)C[C@H]3/C=C\CCCCC[C@H](NC(=O)OCC3COC3)C(=O)N2C1` [Example 177, oxetan-3-ylmethyl [(2R,6S,12Z,13aS,14aR,16aS)-5′-methyl-14a-{[(1-methylcyclopropyl)sulfonyl]carbamoyl}-5,16-dioxo-9′-(trifluoromethoxy)-1,1′,2′,5,6,7,8,9,10,11,13a,14,14a,15,16,16a-hexadecahydrospiro[cyclopropa[e]pyrrolo[1,2-a][1,4]diazacyclopentadecine-2,3′-pyrano[2,3-c]quinolin]-6-yl]carbamate]: the EC50 in assay [1] (genotype 1b replicon) is 21900 pM. Besides, the IC50 in assay [2] (setting [4]) is 0.011 nM.
Regarding `CCOC(=O)N[C@H]1CCCCC/C=C\[C@@H]2C[C@@]2(C(=O)NS(=O)(=O)C2(C)CC2)NC(=O)[C@@H]2C[C@]3(CCc4c(c(C5CC5)nc5cc(OC)ccc45)O3)CN2C1=O` [Example 138, ethyl [(2R,6S,12Z,13aS,14aR,16aS)-5′-cyclopropyl-8′-methoxy-14a-{[(1-methylcyclopropyl)sulfonyl]carbamoyl}-5,16-dioxo-1,1′,2′,5,6,7,8,9,10,11,13a,14,14a,15,16,16a-hexadecahydrospiro[cyclopropa[e]pyrrolo[1,2-a][1,4]diazacyclopentadecine-2,3′-pyrano[2,3-c]quinolin]-6-yl]carbamate], the EC50 in assay [1] (genotype 1b replicon) came out at 2510 pM. In assay [2] (setting [4]), inhibition was half-maximal at 0.043 nM (IC50).
`COc1ccc2nc(C)c3c(c2c1)[C@H](F)C[C@]1(C[C@H]2C(=O)N[C@]4(C(=O)NS(=O)(=O)C5(C)CC5)C[C@H]4/C=C\CCCCC[C@H](NC(=O)OC4CCCC4)C(=O)N2C1)O3` [Example 373, cyclopentyl [(1′R,2S,6S,12Z,13aS,14aR,16aS)-1′-fluoro-9′-methoxy-5′-methyl-14a-{[(1-methylcyclopropyl)sulfonyl]carbamoyl}-5,16-dioxo-1,1′,2′,5,6,7,8,9,10,11,13a,14,14a,15,16,16a-hexadecahydrospiro[cyclopropa[e]pyrrolo[1,2-a][1,4]diazacyclopentadecine-2,3′-pyrano[2,3-c]quinolin]-6-yl]carbamate]: the EC50 in assay [1] (setting [5]) was 2670 pM. Moreover, the half-maximal inhibitory concentration (IC50) in assay [2] (setting [6]) was 0.011 nM.
Regarding `COCCC(C)(C)OC(=O)N[C@H]1CCCCC/C=C\[C@@H]2C[C@@]2(C(=O)NS(=O)(=O)C2(C)CC2)NC(=O)[C@@H]2C[C@]3(CCc4c(c(C)nc5ccc(OC(F)(F)F)cc45)O3)CN2C1=O` [Example 208, 4-methoxy-2-methylbutan-2-yl [(2R,6S,12Z,13aS,14aR,16aS)-5′-methyl-14a-{[(1-methylcyclopropyl)sulfonyl]carbamoyl}-5,16-dioxo-9′-(trifluoromethoxy)-1,1′,2′,5,6,7,8,9,10,11,13a,14,14a,15,16,16a-hexadecahydrospiro[cyclopropa[e]pyrrolo[1,2-a][1,4]diazacyclopentadecine-2,3′-pyrano[2,3-c]quinolin]-6-yl]carbamate], the EC50 in assay [1] (genotype 1b replicon) was determined as 2050 pM. Moreover, the IC50 in assay [2] (setting [4]) is 0.009 nM.
For `COc1ccc2nc(C(C)C)c3c(c2c1)CC[C@]1(C[C@H]2C(=O)N[C@]4(C(=O)NS(=O)(=O)C5(C)CC5)C[C@H]4/C=C\CCCCC[C@H](NC(=O)OC4(C)CCC4)C(=O)N2C1)O3` [Example 169, 1-methylcyclobutyl [(2R,6S,12Z,13aS,14aR,16aS)-9′-methoxy-14a-{[(1-methylcyclopropyl)sulfonyl]carbamoyl}-5,16-dioxo-5′-(propan-2-yl)-1,1′,2′,5,6,7,8,9,10,11,13a,14,14a,15,16,16a-hexadecahydrospiro[cyclopropa[e]pyrrolo[1,2-a][1,4]diazacyclopentadecine-2,3′-pyrano[2,3-c]quinolin]-6-yl]carbamate], in assay [1] (genotype 1b replicon), the EC50 was 1530 pM. The IC50 in assay [2] (setting [4]) came out at 0.019 nM.
Turning to `COc1ccc2nc(C)c3c(c2c1)CC[C@]1(C[C@H]2C(=O)N[C@]4(C(=O)NS(=O)(=O)C5(C)CC5)C[C@H]4/C=C\CCCCC[C@H](NC(=O)OCC4(C(F)(F)F)CC4)C(=O)N2C1)O3` [Example 349, [1-(trifluoromethyl)cyclopropyl]methyl [(2R,6S,12Z,13aS,14aR,16aS)-9′-methoxy-5′-methyl-14a-{[(1-methylcyclopropyl)sulfonyl]carbamoyl}-5,16-dioxo-1,1′,2′,5,6,7,8,9,10,11,13a,14,14a,15,16,16a-hexadecahydrospiro[cyclopropa[e]pyrrolo[1,2-a][1,4]diazacyclopentadecine-2,3′-pyrano[2,3-c]quinolin]-6-yl]carbamate], the EC50 in assay [1] (genotype 1b replicon, K+ salt) is 4550 pM. In assay [2] (IC50 [gt-1b] (nM), NS3/4A genotype 1b, enzyme 0.2 nM, K+ salt), the concentration for half-maximal inhibition (IC50) is 0.012 nM.
